{"source": "patent US5873359A", "about": "“Methods and devices for treating pulmonary vasoconstriction and asthma” (The General Hospital Corporation, priority 1994, dated 1999)", "key": {"[1]": {"tested_on": "primary pulmonary hypertension", "conditions": "cited from earlier work"}, "[2]": {"conditions": "dilute aqueous solution exposed to oxygen; cited from earlier work"}, "[3]": {"tested_on": "methacholine bronchoconstriction", "test": "Tolerance to 1 hour of NO inhalation during methacholine infusion", "type": "in vivo, Hartley strain guinea pigs", "description": "Male Hartley strain guinea pigs (300-440g body wt) were anesthetized with α-chloralose (50 mg/kg) and urethane (500 mg/kg) (Drazen et al., J. Appl. Physiol. 48:613-618, 1980). A tracheostomy was performed, and the animals were intubated with a tubing adaptor (ID 1.65 mm) and ventilated with a small animal ventilator (Harvard Apparatus, a division of Ealing Scientific, Natick, Mass.) at 8 ml/kg and 60 breaths/min. A jugular vein was cannulated for intravenous administration of drugs. The chest was opened by bilateral excision of a portion of the ribs anteriorly so that the lungs were exposed to atmospheric pressure (Shore and Drazen, J. Appl. Physiol. 67:2504-2511, 1989). A positive end expiratory pressure of 3-4 cmH2 O was provided.\nGuinea pigs were then placed inside a plethysmograph (Amdur and Mead, Am. J. Physiol. 192:363-368, 1958), that was connected to a large reservoir containing copper mesh to maintain the plethysmograph isothermal. Plethysmograph pressure was measured with a differential pressure transducer (Celesco, Canoga Park, Calif.); the opposite side of this transducer was connected to a similar reservoir. Pressure at the airway opening was measured from a side tap in the tracheal canula. Transpulmonary pressure was measured with a differential pressure transducer (Celesco) as the difference between airway opening pressure and the pressure inside the plethysmograph. […] Tidal volume was measured by recording the pressure changes in the body plethysmograph. Volume, flow, and transpulmonary pressure signals were recorded on a strip chart (General Scanning, Watertown, Mass.). Pulmonary resistance and dynamic compliance were calculated by a computer program according to the method of von Neergard and Wirz (Z. Klin. Med. 105:35-50, 1927; Z. Klin. Med. 105:52-82, 1927).\nThe apparatus and conditions used are diagrammed in FIG. 7. […] With volumetrically calibrated flowmeters, varying quantities of NO mixed with N2 were substituted for pure N2 to obtain the desired No concentration at an inspired oxygen concentration (FIO2) of 0.30-0.32. […]"}, "PPHN": {"tested_on": "PPHN", "test": "NO inhalation in two more infants with PPHN", "type": "in vivo, human", "description": "Subsequent subjects. Two more infants with PPHN have been treated by NO inhalation."}, "ARDS": {"tested_on": "ARDS", "test": "NO inhalation in nine additional ARDS patients", "type": "in vivo, human", "description": "Subsequent subjects. Nine additional patients have been treated for ARDS by NO inhalation, for periods up to 28 days."}}, "data": [{"smiles": "[N]=O", "note": "[NO, nitric oxide]", "values": [{"measurement": "PAP difference as percentage of ΔPAP", "setting": "[1]; 40 ppm NO", "result": "about 6%"}, {"measurement": "difference in PAP versus air", "setting": "[1]; 40 ppm NO", "result": 2.9, "unit": "mm Hg"}, {"measurement": "average PAP", "setting": "[1]; breathing 40 ppm NO, seven patients, 59.6 mm Hg breathing air", "result": 56.7, "unit": "mm Hg"}, {"measurement": "average reduction in PVR", "setting": "[1]; during inhalation of NO", "result": 9, "unit": "%"}, {"measurement": "decrease in SAP", "setting": "[1]; during inhalation of NO", "result": "No corresponding decrease in SAP"}, {"measurement": "half life", "setting": "[2]", "result": "less than 10 seconds"}, {"measurement": "tolerance", "setting": "[3]; 100 ppm NO, one hour", "result": "no tolerance"}, {"measurement": "airway resistance", "setting": "[3]; 100 ppm NO, one hour (FIG. 13)", "result": "effectively and stably reduced the airway resistance for one hour"}, {"measurement": "methemoglobin levels", "setting": "[3]; after one hour of breathing 100 ppm NO", "result": "below 5%"}, {"measurement": "preductal oxygenation", "setting": "PPHN; 20-80 ppm NO", "result": "increases in preductal oxygenation"}, {"measurement": "response", "setting": "PPHN; 20-80 ppm NO", "result": "excellent response"}, {"measurement": "survival", "setting": "PPHN; 20-80 ppm NO, two infants", "result": "both survived longterm"}, {"measurement": "need for ECMO", "setting": "PPHN; one of the infants, NO inhalation alone", "result": "ECMO was altogether avoided"}, {"measurement": "methemoglobin levels", "setting": "ARDS; NO inhalation up to 28 days", "result": "No important increase of methemoglobin levels"}, {"measurement": "PAP", "setting": "ARDS; during NO breathing", "result": "reduced PAP"}, {"measurement": "QVA /QT", "setting": "ARDS; during NO breathing", "result": "marked reductions of QVA /QT"}, {"measurement": "survival", "setting": "ARDS; nine patients, up to 28 days", "result": "Seven survived"}]}]}
